The values that follow come from the NIST ThermoML archive (doi:10.1016/j.tca.2016.03.025).

Numbers after ± are expanded uncertainties.

Data set [1] in a line: Molar enthalpy of transition or fusion. The conditions noted are these: Crystal; DSC.
For data set [2] the following is noted: Crystal; DTA.

Turning to `CCC(=O)O[C@](Cc1ccccc1)(c1ccccc1)[C@H](C)CN(C)C.Cl` [Dextropropoxyphene hydrochloride], the “Molar enthalpy of transition or fusion” value in data set [1] is 31.8 ± 1.6 kJ/mol. Moreover, the Normal melting temperature in data set [2] stood at 168 ± 2 °C.

For `CC(=O)Nc1ccc(O)cc1` [N-acetyl-p-aminophenol], in data set [1], the “Molar enthalpy of transition or fusion” value amounted to 27.3 ± 0.82 kJ/mol. Further, the Normal melting temperature in data set [2] came out at 170.2 ± 2 °C.

On to `CN[C@@H](C)[C@@H](O)c1ccccc1.Cl` [Pseudoephedrine hydrochloride], for which the “Molar enthalpy of transition or fusion” value in data set [1] amounted to 27.3 ± 0.99 kJ/mol. For the same compound, in data set [2], the Normal melting temperature was determined as 185 ± 2 °C.

Take `COc1cccc([C@@]2(O)CCCC[C@@H]2CN(C)C)c1.Cl` [tramadol hydrochloride]: in data set [1], the “Molar enthalpy of transition or fusion” value stood at 29.6 ± 1.3 kJ/mol. Moreover, the Normal melting temperature in data set [2] was found to be 184.1 ± 2 °C.
